# Test system: 186277-243-T-J2-PDC complex spheroid growth
# Assay: Anticancer human tumor 186277-243-T-J2-PDC patient-derived colon adenocarcinoma cell line growth inhibition [AhR]
# Details: for IC50: curve of first compound; for viability, T/C: stronger effect = lower value
# Outline: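 Complex tumor spheroids co-cultured with HUVEC and human MSC stroma; AhR antagonists tested in combination with standard-of-care and investigational agents. Top concentration at or near clinical Cmax (else 10 microM), half-log dilutions; growth expressed as percent test/control.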
# [1] = second compound 0.1 µM, first compound 0.0316 µM
# [2] = second compound 0.1 µM, first compound 0.1 µM
# [3] = second compound 0.1 µM, first compound 0.316 µM
# [4] = second compound 0.1 µM, first compound 1 µM
# [5] = second compound 0.316 µM, first compound 0.0316 µM
# [6] = second compound 0.316 µM, first compound 0.1 µM
# [7] = second compound 0.316 µM, first compound 0.316 µM
# [8] = second compound 0.316 µM, first compound 1 µM
# [9] = second compound 1 µM, first compound 0.0316 µM
# [10] = second compound 1 µM, first compound 0.1 µM
# [11] = second compound 1 µM, first compound 0.316 µM
# [12] = second compound 1 µM, first compound 1 µM
# [13] = second compound 3.16 µM, first compound 0.0316 µM
# [14] = second compound 3.16 µM, first compound 0.1 µM
# [15] = second compound 3.16 µM, first compound 0.316 µM
# [16] = second compound 3.16 µM, first compound 1 µM
# [17] = second compound 10 µM, first compound 0.0316 µM
# [18] = second compound 10 µM, first compound 0.1 µM
# [19] = second compound 10 µM, first compound 0.316 µM
# [20] = second compound 10 µM, first compound 1 µM
# [21] = second compound 0.1 µM, first compound 3.16 µM
# [22] = second compound 0.1 µM, first compound 10 µM
# [23] = second compound 0.316 µM, first compound 3.16 µM
# [24] = second compound 0.316 µM, first compound 10 µM
# [25] = second compound 1 µM, first compound 3.16 µM
# [26] = second compound 1 µM, first compound 10 µM
# [27] = second compound 3.16 µM, first compound 3.16 µM
# [28] = second compound 3.16 µM, first compound 10 µM
# [29] = second compound 10 µM, first compound 3.16 µM
# [30] = second compound 10 µM, first compound 10 µM
# [31] = second compound 0.1 µM, first compound 0.00949 µM
# [32] = second compound 0.1 µM, first compound 0.03 µM
# [33] = second compound 0.1 µM, first compound 0.0949 µM
# [34] = second compound 0.1 µM, first compound 0.3 µM
# [35] = second compound 0.316 µM, first compound 0.00949 µM
# [36] = second compound 0.316 µM, first compound 0.03 µM
# [37] = second compound 0.316 µM, first compound 0.0949 µM
# [38] = second compound 0.316 µM, first compound 0.3 µM
# [39] = second compound 1 µM, first compound 0.00949 µM
# [40] = second compound 1 µM, first compound 0.03 µM
# [41] = second compound 1 µM, first compound 0.0949 µM
# [42] = second compound 1 µM, first compound 0.3 µM
# [43] = second compound 3.16 µM, first compound 0.00949 µM
# [44] = second compound 3.16 µM, first compound 0.03 µM
# [45] = second compound 3.16 µM, first compound 0.0949 µM
# [46] = second compound 3.16 µM, first compound 0.3 µM
# [47] = second compound 10 µM, first compound 0.00949 µM
# [48] = second compound 10 µM, first compound 0.03 µM
# [49] = second compound 10 µM, first compound 0.0949 µM
# [50] = second compound 10 µM, first compound 0.3 µM
# 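Note: spheroids exposed to compounds for seven days before the viability read.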
# 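Throughout, for viability, T/C: luminescent signal used as a stand-in for viable cell amount; 100% = DMSO vehicle control wells.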
smiles,measurement,setting,value
CC1COCCN1c1cc(-c2ccnn2C)c2ccnc(-c3ccn[nH]3)c2n1 (stereo not given) + CC(CO)NC(=O)c1cc(-c2ccc(Cl)cc2)nn(-c2cnn(C)c2)c1=O,IC50,second compound 0.1 µM,24.3 nM
same,IC50,second compound 0.316 µM,23.6 nM
same,IC50,second compound 1 µM,20.4 nM
same,IC50,second compound 3.16 µM,19.2 nM
same,IC50,second compound 10 µM,11.4 nM
same,"viability, T/C","second compound 0.1 µM, first compound 0.00316 µM",100%
same,"viability, T/C","second compound 0.1 µM, first compound 0.01 µM",89.9%
same,"viability, T/C",[1],38.1%
same,"viability, T/C",[2],7.53%
same,"viability, T/C",[3],3.44%
same,"viability, T/C",[4],2.42%
same,"viability, T/C","second compound 0.316 µM, first compound 0.00316 µM",91%
same,"viability, T/C","second compound 0.316 µM, first compound 0.01 µM",86.3%
same,"viability, T/C",[5],37.5%
same,"viability, T/C",[6],6.69%
same,"viability, T/C",[7],2.84%
same,"viability, T/C",[8],2.25%
same,"viability, T/C","second compound 1 µM, first compound 0.00316 µM",103%
same,"viability, T/C","second compound 1 µM, first compound 0.01 µM",77%
same,"viability, T/C",[9],34.2%
same,"viability, T/C",[10],6.17%
same,"viability, T/C",[11],3.4%
same,"viability, T/C",[12],2.51%
same,"viability, T/C","second compound 3.16 µM, first compound 0.00316 µM",82.3%
same,"viability, T/C","second compound 3.16 µM, first compound 0.01 µM",84.8%
same,"viability, T/C",[13],24.2%
same,"viability, T/C",[14],6.02%
same,"viability, T/C",[15],3.47%
same,"viability, T/C",[16],2.6%
same,"viability, T/C","second compound 10 µM, first compound 0.00316 µM",79.3%
same,"viability, T/C","second compound 10 µM, first compound 0.01 µM",54.1%
same,"viability, T/C",[17],18.2%
same,"viability, T/C",[18],6.38%
same,"viability, T/C",[19],3.92%
same,"viability, T/C",[20],2.78%
CC1COCCN1c1cc(C2(S(C)(=N)=O)CC2)nc(-c2ccnc3[nH]ccc23)n1 (stereo not given) + CC(CO)NC(=O)c1cc(-c2ccc(Cl)cc2)nn(-c2cnn(C)c2)c1=O,IC50,second compound 0.1 µM,885 nM
same,IC50,second compound 0.316 µM,899 nM
same,IC50,second compound 1 µM,801 nM
same,IC50,second compound 3.16 µM,734 nM
same,IC50,second compound 10 µM,611 nM
same,"viability, T/C",[1],99.5%
same,"viability, T/C",[2],97.3%
same,"viability, T/C",[3],86%
same,"viability, T/C",[4],47%
same,"viability, T/C",[21],5.74%
same,"viability, T/C",[22],3.37%
same,"viability, T/C",[5],97.9%
same,"viability, T/C",[6],101%
same,"viability, T/C",[7],87.3%
same,"viability, T/C",[8],47.1%
same,"viability, T/C",[23],6.52%
same,"viability, T/C",[24],3.04%
same,"viability, T/C",[9],109%
same,"viability, T/C",[10],92.8%
same,"viability, T/C",[11],89.8%
same,"viability, T/C",[12],41.1%
same,"viability, T/C",[25],5.47%
same,"viability, T/C",[26],2.94%
same,"viability, T/C",[13],91.1%
same,"viability, T/C",[14],90.9%
same,"viability, T/C",[15],76.9%
same,"viability, T/C",[16],41%
same,"viability, T/C",[27],5.43%
same,"viability, T/C",[28],2.86%
same,"viability, T/C",[17],76.3%
same,"viability, T/C",[18],75.9%
same,"viability, T/C",[19],71.8%
same,"viability, T/C",[20],33.7%
same,"viability, T/C",[29],6.79%
same,"viability, T/C",[30],3.4%
COc1ccc([C@@H](O)c2cc(-c3ncnc4cc(N5CCOCC5)ccc34)c(F)cc2Cl)nn1 + CC(CO)NC(=O)c1cc(-c2ccc(Cl)cc2)nn(-c2cnn(C)c2)c1=O,IC50,second compound 0.1 µM,3230 nM
same,IC50,second compound 0.316 µM,3710 nM
same,IC50,second compound 1 µM,3030 nM
same,IC50,second compound 3.16 µM,2560 nM
same,IC50,second compound 10 µM,1620 nM
same,"viability, T/C",[1],105%
same,"viability, T/C",[2],96.3%
same,"viability, T/C",[3],96.8%
same,"viability, T/C",[4],73.5%
same,"viability, T/C",[21],51.6%
same,"viability, T/C",[22],20.7%
same,"viability, T/C",[5],109%
same,"viability, T/C",[6],98.8%
same,"viability, T/C",[7],84.2%
same,"viability, T/C",[8],85.1%
same,"viability, T/C",[23],53.9%
same,"viability, T/C",[24],18.4%
same,"viability, T/C",[9],95.5%
same,"viability, T/C",[10],95.6%
same,"viability, T/C",[11],87.3%
same,"viability, T/C",[12],78.8%
same,"viability, T/C",[25],48.4%
same,"viability, T/C",[26],19.1%
same,"viability, T/C",[13],88.3%
same,"viability, T/C",[14],95.7%
same,"viability, T/C",[15],87%
same,"viability, T/C",[16],74.8%
same,"viability, T/C",[27],44.5%
same,"viability, T/C",[28],18.1%
same,"viability, T/C",[17],88.8%
same,"viability, T/C",[18],72.6%
same,"viability, T/C",[19],78.9%
same,"viability, T/C",[20],64%
same,"viability, T/C",[29],30.7%
same,"viability, T/C",[30],15.6%
Nc1ncn(C2CC(O)C(CO)S2)c(=O)n1 (stereo not given) + CC(CO)NC(=O)c1cc(-c2ccc(Cl)cc2)nn(-c2cnn(C)c2)c1=O,IC50,second compound 0.1 µM,139 nM
same,IC50,second compound 0.316 µM,118 nM
same,IC50,second compound 1 µM,132 nM
same,IC50,second compound 3.16 µM,142 nM
same,IC50,second compound 10 µM,118 nM
same,"viability, T/C","second compound 0.1 µM, first compound 0.000949 µM",101%
same,"viability, T/C","second compound 0.1 µM, first compound 0.003 µM",94.8%
same,"viability, T/C",[31],93%
same,"viability, T/C",[32],85.6%
same,"viability, T/C",[33],59.6%
same,"viability, T/C",[34],29.9%
same,"viability, T/C","second compound 0.316 µM, first compound 0.000949 µM",83.6%
same,"viability, T/C","second compound 0.316 µM, first compound 0.003 µM",92.8%
same,"viability, T/C",[35],92.8%
same,"viability, T/C",[36],93.1%
same,"viability, T/C",[37],55%
same,"viability, T/C",[38],29.1%
same,"viability, T/C","second compound 1 µM, first compound 0.000949 µM",102%
same,"viability, T/C","second compound 1 µM, first compound 0.003 µM",100%
same,"viability, T/C",[39],99.4%
same,"viability, T/C",[40],94.2%
same,"viability, T/C",[41],56.7%
same,"viability, T/C",[42],33.1%
same,"viability, T/C","second compound 3.16 µM, first compound 0.000949 µM",82%
same,"viability, T/C","second compound 3.16 µM, first compound 0.003 µM",93%
same,"viability, T/C",[43],92%
same,"viability, T/C",[44],85%
same,"viability, T/C",[45],59.8%
same,"viability, T/C",[46],32%
same,"viability, T/C","second compound 10 µM, first compound 0.000949 µM",89.1%
same,"viability, T/C","second compound 10 µM, first compound 0.003 µM",75.1%
same,"viability, T/C",[47],89.1%
same,"viability, T/C",[48],66.8%
same,"viability, T/C",[49],55.1%
same,"viability, T/C",[50],34.2%
O=C(C=Cn1cnc(-c2cc(C(F)(F)F)cc(C(F)(F)F)c2)n1)NNc1cnccn1 + CC(CO)NC(=O)c1cc(-c2ccc(Cl)cc2)nn(-c2cnn(C)c2)c1=O,IC50,second compound 0.1 µM,86.6 nM
same,IC50,second compound 0.316 µM,89.2 nM
same,IC50,second compound 1 µM,73.2 nM
same,IC50,second compound 3.16 µM,72.9 nM
same,IC50,second compound 10 µM,43.9 nM
same,"viability, T/C",[31],80.4%
same,"viability, T/C",[32],78.3%
same,"viability, T/C",[33],46.8%
same,"viability, T/C",[34],13.1%
same,"viability, T/C","second compound 0.1 µM, first compound 0.949 µM",3.75%
same,"viability, T/C","second compound 0.1 µM, first compound 3 µM",1.33%
same,"viability, T/C",[35],78%
same,"viability, T/C",[36],83.5%
same,"viability, T/C",[37],46.7%
same,"viability, T/C",[38],12.6%
same,"viability, T/C","second compound 0.316 µM, first compound 0.949 µM",4.18%
same,"viability, T/C","second compound 0.316 µM, first compound 3 µM",1.56%
same,"viability, T/C",[39],83.3%
same,"viability, T/C",[40],67.6%
same,"viability, T/C",[41],46.9%
same,"viability, T/C",[42],13.4%
same,"viability, T/C","second compound 1 µM, first compound 0.949 µM",4.21%
same,"viability, T/C","second compound 1 µM, first compound 3 µM",1.3%
same,"viability, T/C",[43],67.8%
same,"viability, T/C",[44],63.8%
same,"viability, T/C",[45],46%
same,"viability, T/C",[46],12.6%
same,"viability, T/C","second compound 3.16 µM, first compound 0.949 µM",4.26%
same,"viability, T/C","second compound 3.16 µM, first compound 3 µM",2.11%
same,"viability, T/C",[47],62%
same,"viability, T/C",[48],55%
same,"viability, T/C",[49],38%
same,"viability, T/C",[50],11.7%
same,"viability, T/C","second compound 10 µM, first compound 0.949 µM",3.48%
same,"viability, T/C","second compound 10 µM, first compound 3 µM",2.03%
